US7378447B2, “Muscarinic agonists” (Eli Lilly and Company, priority 2003, dated 2008)
Read-outs that look alike come from different tables or passages of the source.

Test system: Male Sprague-Dawley rats
Details: six-hour delay

Nc1c2c(nc3ccccc13)CCCC2 [Tacrine, tacrine]
retention (errors in retention session) (tacrine 3 mg/kg s.c. immediately after the sampling phase): not
retention (errors in retention session) (tacrine 10 mg/kg s.c. immediately after the sampling phase): significantly improved retention
